The term IC50 denotes the concentration at which inhibition is half-maximal.

The structures appear in SMILES notation.

Among the data in article PMC10221469 (Viruses, 2023) are IC50 values, retold here.

The test system of the assay is SARS-CoV-2 pseudovirus (lentiviral vector, spike D614G). The class given is cell-based. The note with it: read-out: IC50 pseudovirus entry (luciferase output).

With `C#CCC(Cc1cnc2nc(N)nc(N)c2n1)c1ccc(C(=O)N[C@@H](CCC(=O)O)C(=O)O)cc1` (some centres unmarked) [Pralatrexate], the IC50 came out at 12.1 nM.
Under `COc1cc(NCc2ccc3nc(N)nc(N)c3c2C)cc(OC)c1OC` [Trimetrexate] stands 225 nM.
